# US6340670B1, “Acetal benzylmaltosides as inhibitors of smooth muscle cell proliferation” (American Home Products Corporation, priority 1998, dated 2002)
# Tested on: Porcine Smooth Muscle Cell
# Experiment: Effects of Compounds on Cell Proliferation Using 3H Thymidine Incorporation
# Type: cell-based
# Conditions: @ 50 μM, control (100%) = maximally stimulated cells
# Method: Effects of Compounds on Cell Proliferation Using ^3H Thymidine Incorporation
# Human and porcine smooth muscle cells were tested in early passage (generally passage 3-7) at sub-confluent conditions. Cultures were grown in 16 mm (24 well) multi-well culture dishes in medium 199 supplemented with 10% fetal bovine serum and 2% antibiotic/antimycotic. At sub-confluence, the cells were placed in a defined serum free medium (AIM-V; Gibco) for 24-48 h prior to initiating the experimental protocol.
# Compounds were added to each well at 50 fold dilution (20 μL/well) and the plates were incubated for 24-36 h at 37° C. in 5% CO2. Compounds were initially dissolved in 50% ethanol and serially diluted into media. Compounds were routinely evaluated at concentrations from 1 to 100 μM. As a control, grade II porcine intestinal mucosal heparin (sodium salt) was routinely evaluated in all cell preparations at concentrations from 0.1 to 100 μg/mL.
# At the completion of the test procedure, plates were placed on ice, washed three times with ice cold phosphate buffered saline (PBS) and incubated in ice cold 10% trichloroacetic acid (TCA) got 30 min to remove acid soluble proteins. Solution was transferred to scintillation vials containing 0.4 N HCl (500 μL/vial to neutralize NaOH) and each well was rinsed two times with water (500 μL) for a total volume of 2 mL/vial.
# Data was obtained, in triplicate, for both control and experimental samples. Control (100%) data was obtained from maximally stimulated cells, as the result of growth factor or serum stimulation. Experimental data was obtained from cells maximally stimulated with growth factor or serum and treated with compound. Data are expressed as an IC50 or percent inhibition in Table I below.
row,Compound,"Porcine Smooth Muscle Cell Antiproliferation, percent inhibition [% @ 50]"
1,"CC(=O)N(C)c1cc(CO[C@@H]2O[C@H](CO)[C@@H](O[C@H]3O[C@@H]4COC(c5ccccc5)O[C@H]4[C@H](O)[C@H]3O)[C@H](O)[C@H]2O)ccc1Cl (stereo partly drawn) [Example 78, N-{5-[(4′,6′-O-Benzylidene-β-D-maltosyl)-oxymethyl]-2-chloro-phenyl}-N-methyl-acetamide]",8

# Same assay, conditions: serum/growth factor stimulated cells, 24-36 h incubation, read-out: Porcine Smooth Muscle Cell Antiproliferation IC50
row,Compound,IC50 [nM]
1,"Nc1cc(COC2OC(COC(=O)c3ccccc3)C(OC3OC4COC(c5ccccc5)OC4C(O)C3O)C(O)C2O)ccc1Cl [Example 67, 5-(6-O-Benzoyl-4′,6′-O-benzylidene-β-D-maltosyl)-oxy-methyl-2-chloro-phenylamine]",1290
2,"CC(=O)Nc1cc(CO[C@@H]2O[C@H](COC(=O)c3ccccc3)[C@@H](O[C@H]3O[C@@H]4COC(c5ccc([N+](=O)[O-])cc5)O[C@H]4[C@H](O)[C@H]3O)[C@H](O)[C@H]2O)ccc1Cl (stereo partly drawn) [Example 11, N-(5-{[6-O-Benzoyl-4′,6′-O-(4-nitro)-benzylidene-β-D-maltosyl]-oxy-methyl}-2-chloro-phenyl)-acetamide]",3
3,"Benzoic acid 6-(3-acetylamino-4-chloro-benzoyloxy)-3-(7,8-dihydroxy-2-pyridin-4-yl-hexahydro-pyrano[3,2-d][1,3]dioxin-6-yloxy)-4,5-dihydroxy-tetrahydro-pyran-2-ylmethyl ester [Example 23]",3
4,"O=C(Nc1cc(COC2OC(COC(=O)c3ccccc3)C(OC3OC4COC(c5ccccc5)OC4C(O)C3O)C(O)C2O)ccc1Cl)c1ccc(C(=O)c2ccccc2)cc1 [Example 71, 4-Benzoyl-N-{5-[(6-benzoyl-oxy-4′,6′-O-benzylidene-β-D-maltosyl)-oxy-methyl]-2-chloro-phenyl}-benzoic acid amide]",50
5,"O=C(Nc1cc(COC2OC(CO)C(OC3OC4COC(c5ccccc5)OC4C(O)C3O)C(O)C2O)ccc1Cl)c1ccc(C(=O)c2ccccc2)cc1 [Example 70, 4-Benzoyl-N-{5-[(4′,6′-O-benzylidene-β-D-maltosyl)-oxy-methyl]-2-chloro-phenyl}-benzamide]",9940
6,"CC(=O)Nc1cc(COC2OC(COC(=O)c3ccc(C(=O)c4ccccc4)cc3)C(OC3OC4COC(c5ccccc5)OC4C(O)C3O)C(O)C2O)ccc1Cl [Example 56, (R)-N-[5-[[[6-O-(4-Benzoylbenzoyl)-4-O-[4,6-O-(phenylmethylene)-α-D-glucopyranosyl]-β-D-glucopyranosyl]oxy]methyl]-2-chlorophenyl]acetamide]",530
7,"CC(=O)Nc1cc(COC2OC(CO)C(OC3OC4COC(c5ccccc5)OC4C(O)C3O)C(O)C2O)ccc1C [Example 57, N-{5-[(4′,6′-O-Benzylidene-β-D-maltosyl)-oxy-methyl]-2-methyl-phenyl}-acetamide]",8900
8,"CC(=O)Nc1cc(COC2OC(COC(=O)c3ccc(C#N)cc3)C(OC3OC4COC(c5ccccc5)OC4C(O)C3O)C(O)C2O)ccc1Cl [Example 40, (R)-N-[2-Chloro-5-[[[6-O-(4-cyanobenzoyl)-4-O-[4,6O-(phenylmethylene)-α-D-glucopyranosyl]-β-D-glucopyranosyl]oxy]methyl]phenyl]acetamide]",92
9,"CC(=O)Nc1cc(CO[C@@H]2O[C@H](CO)[C@@H](O[C@H]3O[C@@H]4COC(c5ccccc5)O[C@H]4[C@H](O)[C@H]3O)[C@H](O)[C@H]2O)ccc1Cl (stereo partly drawn) [Example 24, N-{5-[(4′,6′-O-Benzylidene-β-D-maltosyloxy)-methyl]-2-chloro-phenyl}-acetamide]",6600
10,"CCOCCC1OCC2OC(OC3C(COC(=O)c4ccccc4)OC(OCc4ccc(Cl)c(NC(C)=O)c4)C(O)C3O)C(O)C(O)C2O1 [Example 21, N-{5-{[6-O-Benzoyl-4′,6′-O-((1R)-3-ethoxypropylidene)-β-D-maltosyloxy]-methyl}-2-chloro-phenyl}-acetamide]",62
11,"C=CCCC(=O)Nc1cc(COC2OC(CO)C(OC3OC4COC(c5ccccc5)OC4C(O)C3O)C(O)C2O)ccc1Cl [Example 65, N-{2-Chloro-5-[(4′,6′-O-benzylidene-β-D-maltosyl)-oxy-methyl]-phenyl}-pent-4-enamide]",17800
12,"CC(=O)Nc1cc(COC2OC(COC(=O)c3ccc(Cl)c([N+](=O)[O-])c3)C(OC3OC4COC(c5ccccc5)OC4C(O)C3OC(C)=O)C(OC(C)=O)C2OC(C)=O)ccc1Cl [Example 39, N-{5-[(2,2′,3,-Tri-O-Acetyl-6-O-(4-chloro-3-nitrobenzoyl)-4′,6′-O-(benzylidene)-β-D-maltosyl)-oxymethyl]-2-chloro-phenyl)-acetamide]",2530
13,"CC(=O)Nc1cc(COC2OC(COC(=O)c3ccccc3)C(OC3OC4COC(c5ccc(Cl)cc5)OC4C(O)C3O)C(O)C2O)ccc1Cl [Example 13, N-{1 5-[(6-O-Benzoyl-4′,6′-O-(4-chloro)-benzylidene-β-D-maltosyl)-oxy-methyl]-2-chloro-phenyl}-acetamide]",23
14,"CC(=O)Nc1cc(COC2OC(COC(=O)c3ccccc3)C(OC3OC4COC(CCC#N)OC4C(O)C3O)C(O)C2O)ccc1Cl [Example 19, N-{5-{[6-O-Benzoyl-4′,6′-O-((1R)-3-cyanopropylidene)-β-D-maltosyloxy]-methyl}-2-chloro-phenyl}-acetamide]",1
15,"CC(=O)Nc1cc(COC2OC(CO)C(OC3OC4COC(c5ccc([N+](=O)[O-])cc5)OC4C(O)C3O)C(O)C2O)ccc1Cl [Example 10, N-(2-Chloro-5-{[4′,6′-O-(4-nitro)-benzylidene-β-D-maltosyl]-oxy-methyl}-phenyl)-acetamide]",19200
16,"O=C(Nc1cc(CO[C@@H]2O[C@H](COC(=O)c3ccccc3)[C@@H](O[C@H]3O[C@@H]4CO[C@@H](c5ccccc5)O[C@H]4[C@H](O)[C@H]3O)[C@H](O)[C@H]2O)ccc1Cl)c1cccnc1 [Example 62, (R)-N-[5-[[[6-O-Benzoyl-4-O-[4′,6′-O-(phenylmethylene)-α-D-glucopyranosyl]-β-D-glucopyranosyl]oxy]methyl]-2-chlorophenyl]-3-pyridinecarboxamide]",23
17,"CC(=O)Nc1cc(COC2OC(COC(=O)c3ccc(Cl)c([N+](=O)[O-])c3)C(OC3OC4COC(c5ccccc5)OC4C(O)C3O)C(O)C2O)ccc1Cl [Example 38, (R)-N-[2-Chloro-5-[[[6-O-(4-chloro-3-nitrobenzoyl)-4-O-[4,6O-(phenylmethylene)-α-D-glucopyranosyl]-β-D-glucopyranosyl]oxy]methyl]phenyl]acetamide]",187
18,"O=C(OCC1OC(OCc2ccc(Cl)c([N+](=O)[O-])c2)C(O)C(O)C1OC1OC2COC(c3ccccc3)OC2C(O)C1O)c1ccccc1 [Example 30, 4-Chloro-3-nitro-benzyl-6-O-benzoyl-4′,6′-O-benyzlidene-β-D-maltoside]",351
19,"CC(=O)Nc1cc(CO[C@@H]2O[C@H](COC(=O)c3ccccc3)[C@@H](O[C@H]3O[C@@H]4COC(c5ccccc5)O[C@H]4[C@H](O)[C@H]3O)[C@H](O)[C@H]2O)ccc1Cl (stereo partly drawn) [Example 26, N-{5-[(6-O-Benzoyl-4′,6′-O-benzylidene-β-D-maltosyl-oxy)-methyl]-2-chloro-phenyl}-acetamide]",10 to 30
20,"CC(=O)Nc1cc(COC2OC(COC(=O)c3ccccc3)C(OC3OC4COC(c5ccccc5)OC4C(O)C3O)C(O)C2O)ccc1C [Example 85, N-{5-[(6-O-Benzoyl-4′,6′-O-benzylidene-β-D-maltosyl)-oxy-methyl]-2-methyl-phenyl}-acetamide]",418
